{"source": "paper PMC8330727", "about": "“Triglyceride-mimetic prodrugs of scutellarin enhance oral bioavailability by promoting intestinal lymphatic transport and avoiding first-pass metabolism” (Drug Delivery, 2021)", "key": {"[1]": {"conditions": "cited from earlier work"}, "[2]": {"assay": "Oral bioavailability / pharmacokinetic study in conscious female S-D rats (plasma scutellarin by UHPLC-MS/MS)", "conditions": "Sprague-Dawley (S-D), rat, in vivo", "method": "Scutellarin exposure after oral administration of scutellarin and prodrugs was detected in conscious female S-D rats. The rats were fasted for 12 h before the experiment and divided into three groups (n = 5 each group) randomly: scutellarin solution (25 mg/kg), Scu-Me-C5-TG solution (62.5 mg/kg equivalent to Scu), Scu-Me-C5-βMe-TG solution (62.5 mg/kg equivalent to Scu). Blood samples (0.5 mL) were collected from 5 min before administration to up to 24 h post-dosing and centrifuged at 16,000 rpm for 15 min to separate plasma. 100 μL plasma was added into 900 μL methanol and vortexed for 5 min, then centrifuged at 16,000 rpm for 15 min. The supernatant was sampled and used for UHPLC-MS/MS detection. The pharmacokinetic parameters were calculated by DAS 2.0 software."}, "[3]": {"parameters": "method as in Marina Shamis and Shabat, 2003; Ma et al., 2015", "conditions": "Figure 2; ref Marina Shamis and Shabat, 2003; Ma et al., 2015; cited from earlier work"}, "[4]": {"assay": "In vivo lymphatic transport in anesthetized mesenteric lymph duct-cannulated rats", "parameters": "species or system rat", "conditions": "scutellarin 25 mg/kg intragastric, anesthetized female rats"}, "[5]": {"parameters": "method as in Huang et al., 2005", "conditions": "rats; ref Huang et al., 2005; cited from earlier work"}, "[6]": {"conditions": "source not stated; cited from earlier work"}, "[7]": {"parameters": "method as in Lu et al., 2010", "conditions": "humans, 60 mg of scutellarin taken orally; ref Lu et al., 2010; cited from earlier work"}}, "note": "Read-outs that look alike come from different tables or passages of the source.", "data": [{"compound": "CC[C@@]1(O)C(=O)OCc2c1cc1n(c2=O)Cc2cc3c(CN(C)C)c(O)ccc3nc2-1", "note": "[Topotecan]", "values": [{"measurement": "Log P", "setting": "[1]; ref Wang et al., 2017", "value": 0.8}]}, {"compound": "CCCCCCCCCCCCCCCC(=O)OCC(COC(=O)CCCCCCCCCCCCCCC)OC(=O)CCCC(=O)Oc1ccc(-c2cc(=O)c3c(O)c(O)c(O[C@@H]4O[C@H](C(=O)OC)[C@@H](O)[C@H](O)[C@H]4O)cc3o2)cc1", "note": "[Scu-Me-C5-TG, 1,3-bis(palmitoyloxy)propan-2-yl (4-(5,6-dihydroxy-4-oxo-7-(((2S,3R,4S,5S,6S)-3,4,5-trihydroxy-6-(methoxycarbonyl)tetrahydro-2H-pyran-2-yl)oxy)-4H-chromen-2-yl)phenyl) glutarate]", "values": [{"measurement": "F rel", "setting": "[2]", "value": 223.8, "unit": "%"}, {"measurement": "maximum plasma concentration (Cmax), fold of the parent drug", "setting": "[2]", "value": 1.72, "unit": "fold"}, {"measurement": "relative oral bioavailability (Frel), fold of scutellarin", "setting": "[2]", "value": 2.24, "unit": "fold"}]}, {"compound": "O=C(O)[C@H]1O[C@@H](Oc2cc3oc(-c4ccc(O)cc4)cc(=O)c3c(O)c2O)[C@H](O)[C@@H](O)[C@@H]1O", "note": "[Scutellarin]", "values": [{"measurement": "water solubility", "setting": "[3]", "value": 20, "unit": "µg/mL"}, {"measurement": "drug in collected mesenteric lymph (mass spectrometry)", "setting": "[4]", "value": "failed to reach the limit of quantification"}, {"measurement": "oral bioavailability", "setting": "[5]", "value": 10.6, "unit": "%"}, {"measurement": "pKa", "setting": "[6]", "value": "3-5"}, {"measurement": "Plasma Cmax", "setting": "[7]", "value": "< 5.0", "unit": "ng/mL"}, {"measurement": "Log P", "setting": "[1]; source not stated", "value": "−2.56"}]}, {"compound": "CCCCCCCCCCCCCCCC(=O)OCC(COC(=O)CCCCCCCCCCCCCCC)OC(=O)CC(C)CC(=O)Oc1ccc(-c2cc(=O)c3c(O)c(O)c(O[C@@H]4O[C@H](C(=O)OC)[C@@H](O)[C@H](O)[C@H]4O)cc3o2)cc1", "note": "(stereo partly shown) [Scu-Me-C5-βMe-TG]", "values": [{"measurement": "F rel", "setting": "[2]", "value": 245.2, "unit": "%"}, {"measurement": "maximum plasma concentration (Cmax), fold of the parent drug", "setting": "[2]", "value": 2.11, "unit": "fold"}, {"measurement": "relative oral bioavailability (Frel), fold of scutellarin", "setting": "[2]", "value": 2.45, "unit": "fold"}]}]}
